Experimental data reported in ChEMBL document CHEMBL4130349, “Discovery and structure-activity relationship studies of 2-benzylidene-2,3-dihydro-1H-inden-1-one and benzofuran-3(2H)-one derivatives as a novel class of potential therapeutics for inflammatory bowel disease” (Eur J Med Chem, 2017).
Active and inactive are the calls of the source. No cut-off for these calls is given here.

The compounds below were run on HT-29 (assay: Inhibition of LPS-induced TNF-alpha expression in human HT-29 cells preincubated for 1 hr followed by TNF-alpha challenge measured after 3 hrs by Western blot method).
Type: functional, cell-based

SMILES	inhibition
O=C1/C(=C/c2ccc(O)cc2)Oc2cc(O)ccc21	Dose-dependent effect

The compounds below were run on HT-29 (assay: Inhibition of LPS-induced TNF-alpha expression in human HT-29 cells at 10 uM preincubated for 1 hr followed by TNF-alpha challenge measured after 3 hrs by Western blot method).
Type: functional, cell-based

SMILES	inhibition
O=C1/C(=C/c2ccc(O)cc2)Cc2ccc(O)cc21	Active
Nc1ccc(O)c(C(=O)O)c1 [MESALAMINE]	inactive
O=C1/C(=C/c2ccc(O)cc2)Oc2cc(O)ccc21	Active

The compounds below were run on Rattus norvegicus (assay: Antiinflammatory activity in TNBS-induced Sprague-Dawley rat colitis model assessed as recovery of colon tissue edematous inflammation at 300 mg/kg, po qd administered for 5 days measured on day 6).
Type: functional, organism-based

SMILES	inhibition
O=C(O)c1cc(/N=N/c2ccc(S(=O)(=O)Nc3ccccn3)cc2)ccc1O	Active

Each compound was assayed on HT-29 (assay: Inhibition of TNF-alpha-induced MCP-1 expression in human HT-29 cells at 10 uM preincubated for 1 hr followed by TNF-alpha challenge measured after 3 hrs by Western blot analysis).
Type: functional, cell-based

SMILES	inhibition
O=C1/C(=C/c2ccc(O)cc2)Cc2ccc(O)cc21	Active
O=C1/C(=C/c2ccccc2O)Oc2ccccc21	Active
O=C1/C(=C/c2cccc(O)c2)Oc2cc(O)ccc21	Active
O=C1/C(=C/c2ccc(Cl)cc2)Cc2cccc(O)c21	Active
O=C1/C(=C/c2ccccc2)Cc2ccccc21	Active
O=C1/C(=C/c2ccccc2O)Cc2ccc(O)cc21	Active
O=C1/C(=C/c2cccc(O)c2)Oc2ccccc21	Active
O=C1/C(=C/c2ccc(Cl)s2)Oc2ccccc21	Active
O=C1/C(=C/c2ccc(O)cc2)Cc2ccccc21	Active

Each compound was assayed on HT-29 (assay: Inhibition of TNF-alpha-induced adhesion of BCECF-labeled human U937 cells to human HT-29 cells at […] preincubated for 1 hr followed by TNF-alpha challenge measured after 3 hrs by fluorescence microscopic method relative to control).
Type: functional

SMILES	inhibition
Nc1ccc(O)c(C(=O)O)c1 [MESALAMINE]	52.8%

These compounds were tested on HT-29 (assay: Inhibition of TNF-alpha-induced MCP-1 expression in human HT-29 cells preincubated for 1 hr followed by TNF-alpha challenge measured after 3 hrs by Western blot analysis).
Type: functional, cell-based

SMILES	inhibition
O=C1/C(=C/c2ccc(O)cc2)Oc2cc(O)ccc21	Dose-dependent effect

What follows are compounds tested on HT-29 (assay: Potency index, ratio of 5-ASA IC50 to test compound IC50 for inhibition of TNF-alpha-induced adhesion of BCECF-labeled human U937 cells to human HT-29 cells).
Type: functional

SMILES	Ratio IC50
O=C1/C(=C/c2ccc(O)cc2)Oc2cc(O)ccc21	40000

What follows are compounds tested on HT-29 (assay: Inhibition of TNF-alpha-induced ROS production in human HT-29 cells at 100 uM preincubated for 1 hr followed by TNF-alpha challenge measured after 30 mins by DCF-DA dye-based fluorescence microscopy).
Type: functional, cell-based

SMILES	inhibition
COc1cc(C(C)=O)ccc1O	Active

What follows are compounds tested on Rattus norvegicus (assay: Antiinflammatory activity in po dosed TNBS-induced Sprague-Dawley rat colitis model assessed as decrease in MPO levels in colon tissue administered once per day for 5 days measured on day 6).
Type: functional, organism-based

SMILES	inhibition
O=C1/C(=C/c2ccc(O)cc2)Oc2cc(O)ccc21	Dose-dependent effect

Each compound was assayed on HT-29 (assay: Inhibition of TNF-alpha-induced ROS production in human HT-29 cells preincubated for 1 hr followed by TNF-alpha challenge measured after 30 mins by DCF-DA dye-based fluorescence microscopy).
Type: functional, cell-based

SMILES	inhibition
O=C1/C(=C/c2ccc(O)cc2)Oc2cc(O)ccc21	Active

Each compound was assayed on HT-29 (assay: Inhibition of TNF-alpha-induced NFkappa-B transcriptional activity in human HT-29 cells at 10 uM preincubated for 1 hr followed by TNF-alpha challenge measured after 3 hrs by dual luciferase reporter gene assay).
Type: functional, cell-based

SMILES	inhibition
O=C1/C(=C/c2ccc(O)cc2)Cc2ccc(O)cc21	Active
O=C1/C(=C/c2ccccc2O)Oc2ccccc21	Active
O=C1/C(=C/c2cccc(O)c2)Oc2cc(O)ccc21	Active
O=C1/C(=C/c2ccc(Cl)cc2)Cc2cccc(O)c21	Active
O=C1/C(=C/c2ccccc2)Cc2ccccc21	Active
O=C1/C(=C/c2ccccc2O)Cc2ccc(O)cc21	Active
O=C1/C(=C/c2ccc(O)cc2)Oc2cc(O)ccc21	Active
O=C1/C(=C/c2cccc(O)c2)Oc2ccccc21	Active
O=C1/C(=C/c2ccc(Cl)s2)Oc2ccccc21	Active
O=C1/C(=C/c2ccc(O)cc2)Cc2ccccc21	Active

The compounds below were run on Rattus norvegicus (assay: Antiinflammatory activity in po dosed TNBS-induced Sprague-Dawley rat colitis model assessed as recovery in body weight decrease administered once a day for 5 days measured on day 6).
Type: functional, organism-based

SMILES	Activity
O=C1/C(=C/c2ccc(O)cc2)Oc2cc(O)ccc21	Dose-dependent effect

Each compound was assayed on Rattus norvegicus (assay: Antiinflammatory activity in po dosed TNBS-induced Sprague-Dawley rat colitis model assessed as recovery of colon tissue edematous inflammation administered once a day for 5 days measured on day 6).
Type: functional, organism-based

SMILES	Activity
O=C1/C(=C/c2ccc(O)cc2)Oc2cc(O)ccc21	Dose-dependent effect

What follows are compounds tested on HT-29 (assay: Inhibition of TNF-alpha-induced ICAM-1 expression in human HT-29 cells at 10 uM preincubated for 1 hr followed by TNF-alpha challenge measured after 3 hrs by Western blot analysis).
Type: functional, cell-based

SMILES	inhibition
O=C1/C(=C/c2ccc(O)cc2)Cc2ccc(O)cc21	Active
O=C1/C(=C/c2ccccc2O)Oc2ccccc21	Active
O=C1/C(=C/c2cccc(O)c2)Oc2cc(O)ccc21	Active
O=C1/C(=C/c2ccc(Cl)cc2)Cc2cccc(O)c21	Active
O=C1/C(=C/c2ccccc2O)Cc2ccc(O)cc21	Active
O=C1/C(=C/c2cccc(O)c2)Oc2ccccc21	Active
O=C1/C(=C/c2ccc(Cl)s2)Oc2ccccc21	Active
O=C1/C(=C/c2ccc(O)cc2)Cc2ccccc21	Active

The compounds below were run on HT-29 (assay: Inhibition of TNF-alpha-induced ICAM-1 expression in human HT-29 cells preincubated for 1 hr followed by TNF-alpha challenge measured after 3 hrs by Western blot analysis).
Type: functional, cell-based

SMILES	inhibition
O=C1/C(=C/c2ccc(O)cc2)Oc2cc(O)ccc21	Dose-dependent effect

Each compound was assayed on Rattus norvegicus (assay: Antiinflammatory activity in TNBS-induced Sprague-Dawley rat colitis model assessed as recovery in body weight decrease at 300 mg/kg, po qd administered for 5 days measured on day 6).
Type: functional, organism-based

SMILES	inhibition
O=C(O)c1cc(/N=N/c2ccc(S(=O)(=O)Nc3ccccn3)cc2)ccc1O	Active

These compounds were tested on HT-29 (assay: Inhibition of TNF-alpha-induced adhesion of BCECF-labeled human U937 cells to human HT-29 cells preincubated for 1 hr followed by TNF-alpha challenge measured after 3 hrs by fluorescence microscopic method).
Type: functional, cell-based

IC50	SMILES	inhibition
0.83 µM	O=C1/C(=C/c2ccc(O)cc2)Cc2ccc(O)cc21	
0.95 µM	O=C1/C(=C/c2ccccc2O)Oc2ccccc21	
1.68 µM	O=C1/C(=C/c2cccc(O)c2)Oc2cc(O)ccc21	
1.64 µM	O=C1/C(=C/c2ccc(Cl)cc2)Cc2cccc(O)c21	
5.75 µM	O=C1/C(=C/c2ccccc2)Cc2ccccc21	
2.29 µM	O=C1/C(=C/c2ccccc2O)Cc2ccc(O)cc21	
20400 µM	Nc1ccc(O)c(C(=O)O)c1 [MESALAMINE]	
0.5 µM	O=C1/C(=C/c2ccc(O)cc2)Oc2cc(O)ccc21	Dose-dependent effect
3.17 µM	O=C1/C(=C/c2cccc(O)c2)Oc2ccccc21	
3.72 µM	O=C1/C(=C/c2ccc(Cl)s2)Oc2ccccc21	
1.53 µM	O=C1/C(=C/c2ccc(O)cc2)Cc2ccccc21	

These compounds were tested on HT-29 (assay: Inhibition of TNF-alpha-induced AP-1 transcriptional activity in human HT-29 cells at 10 uM preincubated for 1 hr followed by TNF-alpha challenge measured after 3 hrs by dual luciferase reporter gene assay).
Type: functional, cell-based

SMILES	inhibition
O=C1/C(=C/c2ccc(O)cc2)Cc2ccc(O)cc21	Active
O=C1/C(=C/c2ccc(O)cc2)Oc2cc(O)ccc21	Active

These compounds were tested on HT-29 (assay: Inhibition of LPS-induced TNF-alpha expression in human HT-29 cells at […] preincubated for 1 hr followed by TNF-alpha challenge measured after 3 hrs by Western blot method).
Type: functional, cell-based

SMILES	inhibition
Nc1ccc(O)c(C(=O)O)c1 [MESALAMINE]	Active

What follows are compounds tested on HT-29 (assay: Inhibition of TNF-alpha-induced adhesion of BCECF-labeled human U937 cells to human HT-29 cells at 10 uM preincubated for 1 hr followed by TNF-alpha challenge measured after 3 hrs by fluorescence microscopic method relative to control).
Type: functional

SMILES	inhibition at 10 µM
O=C1/C(=C/c2cccc(Cl)c2)Cc2ccccc21	-2.1%
O=C1/C(=C/c2ccc(Cl)o2)Oc2ccccc21	62.2%
O=C1/C(=C/c2cccc(O)c2)Cc2ccccc21	43.7%
COc1ccc(/C=C2\Cc3cccc(O)c3C2=O)cc1O	35%
O=C1/C(=C/c2ccc(O)cc2)Cc2ccc(O)cc21	80.3%
O=C1/C(=C/c2cccc(Cl)c2)Oc2ccccc21	40%
O=C1/C(=C/c2ccc(Cl)cc2)Cc2cc(O)ccc21	0.2%
O=C1/C(=C/c2ccccc2O)Cc2ccccc21	63.1%
O=C1/C(=C/c2cccnc2)Cc2ccccc21	28.7%
O=C1/C(=C/c2ccccc2OC(F)(F)F)Cc2ccccc21	3.4%
O=C1/C(=C/c2ccc(Cl)cc2)Oc2ccccc21	68.7%
O=C1/C(=C/c2ccc(Cl)cc2)Oc2cc(O)ccc21 [6-HYDROXY-4'-CHLORO AURONE]	49%
O=C1/C(=C/c2ccc(Cl)s2)Cc2ccccc21	5.7%
O=C1/C(=C/c2ccc(C(F)(F)F)cc2)Cc2ccccc21	22.5%
O=C1/C(=C/c2cccc(-c3ccccc3)c2)Cc2ccccc21	33.4%
O=C1/C(=C/c2ccc(Cl)o2)Cc2ccccc21	-8.9%
COc1ccc(/C=C2\Cc3cc(O)ccc3C2=O)cc1O	-2.5%
O=C1/C(=C/c2ccccc2O)Cc2c(O)cccc21	30.3%
O=C1/C(=C/c2ccccc2O)Oc2ccccc21	85.6%
O=C1/C(=C/c2cccc(O)c2)Oc2cc(O)ccc21	75.7%
O=C1/C(=C/c2ccc(Cl)cc2)Cc2cccc(O)c21	78.4%
O=C1/C(=C/c2ccccc2)Cc2ccccc21	55.3%
O=C1/C(=C/c2ccccc2O)Cc2ccc(O)cc21	71.3%
Nc1ccc(O)c(C(=O)O)c1 [MESALAMINE]	3.7%
O=C1/C(=C/c2ccc(O)cc2)Oc2cc(O)ccc21	80.3%
O=C1/C(=C/c2cccc(O)c2)Oc2ccccc21	75.4%
O=C1/C(=C/c2ccc(Cl)s2)Oc2ccccc21	75.1%
O=C1/C(=C/c2ccc(O)cc2)Cc2ccccc21	72.6%

What follows are compounds tested on HT-29 (assay: Inhibition of TNF-alpha-induced ROS production in human HT-29 cells at 10 uM preincubated for 1 hr followed by TNF-alpha challenge measured after 30 mins by DCF-DA dye-based fluorescence microscopy).
Type: functional, cell-based

SMILES	inhibition
O=C1/C(=C/c2ccc(O)cc2)Cc2ccc(O)cc21	Active
O=C1/C(=C/c2ccccc2O)Oc2ccccc21	Active
O=C1/C(=C/c2cccc(O)c2)Oc2cc(O)ccc21	Active
O=C1/C(=C/c2ccc(Cl)cc2)Cc2cccc(O)c21	Active
O=C1/C(=C/c2ccccc2O)Cc2ccc(O)cc21	Active
O=C1/C(=C/c2cccc(O)c2)Oc2ccccc21	Active
O=C1/C(=C/c2ccc(Cl)s2)Oc2ccccc21	Active
O=C1/C(=C/c2ccc(O)cc2)Cc2ccccc21	Active
